Measurements: patent publication US20040234527A1, “Peptides for use as translocation factors” (priority 2001, published 2004)
Values joined by “and” are separate entries in the source; they are usually repeats but may differ in a detail not shown here. Identical values can stand only once.

Experiments:
Hela cells = test: β-Galactosidase activity recovered from cell extracts after lipofectin delivery or translocation (4 hours); type: cell-based
Protocol: (§1) The quantitative measurement of translocation was carried out by reading the activity of a β-Galactosidase enzyme that was included as part of a fusion protein with the translocation agents. When provided with the appropriate galactoside substrate, the enzyme deglycosylates the substrate leading to the accumulation of dioxetane. During a following incubation in a different buffer, the dioxetane becomes deprotonated and decomposes with emission of light (425 nm) that can be read using a luminometer. This system, therefore, provided a sensitive means of detecting the amount of the β-Galactosidase present in the samples, and ultimately, the amount of fusion protein delivered into the cells.
The experiments were carried out using 8-well chamber slides. 3×10^4 Hela cells were seeded into each well, suplemented with 400 μl RPMI+10% FCS medium and incubated overnight at 37° C. and 5% CO2. The following day, the appropriate dilutions of protein were made into RPMI medium and added to the wells. Both lipofectin delivery and translocation experiments were carried out for 4 hours.
The experiments were carried out on two different days: the first day a negative control β-Galactosidase and the H1.4B-Bgal were tested, and the second day the antennapedia fusion (Antp-βgal) was tested. A lipofectin delivery of β-Galactosidase, provided by Roche, was performed on both days as positive control for delivery into the cells.
(§2) It was decided to start with the amount of each that gave a value close to 6×10^7 rlu, as this is the limit of the equipment's capacity. From that value, three consecutive ⅕ fold dilutions were made in each case.
(§3) Therefore, the original activity of the different proteins was also measured in parallel to the activity recovered after translocation, in order to make sure that all the proteins were standardised to an original maximum activity of around 6×10^7 rlu.
The results after translocation were obtained by reading the β-Galactosidase recovered from the cell extracts and are shown in Tables 6 and 7. […] In any case, the values for the biggest amounts of β-Galactosidase protein are clearly lower than those obtained from the delivery systems.

[1] = β-Galactosidase activity of the protein constructs before delivery (luminometer); type: biochemical; conditions: 80 ng protein; Table 6 (first day)
Protocol: as §1, §2, §3

Row | Protein activity [1] | Substance | Activity after transfection (Hela cells; 1.6 ng protein, Table 6 (first day)) | Activity after transfection (Hela cells; 1.6 ng protein, Table 7 (second day)) | Activity after transfection (Hela cells; 8 ng protein, Table 6 (first day)) | Activity after transfection (Hela cells; 8 ng protein, Table 7 (second day)) | Activity after transfection (Hela cells; 40 ng protein, Table 6 (first day)) | Activity after transfection (Hela cells; 40 ng protein, Table 7 (second day)) | Activity after transfection (Hela cells; 640 pg protein, Table 6 (first day)) | Activity after transfection (Hela cells; 3.2 ng protein, Table 6 (first day)) | Activity after transfection (Hela cells; 15 ng protein, Table 6 (first day)) | Activity after transfection (Hela cells; 16 ng protein, Table 6 (first day)) | Activity after transfection (Hela cells; 80 ng protein, Table 6 (first day))
1 | – | β-Gal positive control (Roche): β-Galactosidase provided by Roche, delivered with lipofectin reagent as positive control for delivery into the cells | 50.353 rlu and 47.212 rlu | 40.121 rlu and 33.578 rlu | 140.342 rlu and 162.319 rlu | 164.745 rlu and 157.913 rlu | 635.228 rlu and 675.640 rlu | 715.773 rlu and 744.405 rlu | – | – | – | – | –
2 | overload | β-Galactosidase: β-Galactosidase enzyme without translocation agent, negative control | – | – | – | – | – | – | 25.076 rlu and 28.710 rlu | 29.527 rlu and 35.227 rlu | 56.941 rlu | 55.164 rlu | 242.200 rlu and 298.589 rlu
